In brackets after ≈: the same amount, converted by molar mass. Residues, ends and D or L forms follow the SMILES beside them.
How the values were obtained:
[1] = tested on: Human Umbilical Vein Endothelial Cell (HUVEC); type: cell-based; conditions: for biological activity compared with P2: inhibition of HUVEC and HepG2; for Cell Survival (%) at a polypeptide concentration of 120 μM: 6 h
Protocol: 20 cm umbilical cord adjacent to fetus was taken, cleaned by washing, ligated at both ends, placed into 150 ml preservation solutions for umbilical cord, and stored in a 4° C. refrigerator for digestion for 6 hours. The umbilical cord was inspected to remove the damaged portion. The umbilical vein was thoroughly cleaned by washing and then 10 ml collagenase solution was injected. Then the umbilical vein was transferred to a 37° C. incubator for digestion for 15 minutes. The umbilical cord was removed and the digested solution was recovered. The digested solution was washed by PBS and centrifuged. After centrifugation, the cells were culture by re-suspension.
(§1) Inhibition of cell growth was detected by a MTT method, which is based on the principle that succinate dehydrogenase in the mitochondria of the live cells could reduce the exogenous MTT (3-(4,5-dimethyl-2-thiazolyl)-2,5-diphenyl-tetrazolium bromide) to a […] Formazan which is a blue-violet crystal, and precipitates in the cells, while the death cells could not reduce MTT. DMSO could dissolve Formazan in the cells. Absorbance value of the solution was determined at 490/570 nm by microplate reader, which could indirectly indicate the amount of the live cells. The amount of the crystal from MTT is proportional to the amount of the cells within a certain range of cell number. The supernate from the HUVEC or tumor cells in exponential phase was removed and the cells were washed by PBS once. 1 ml 0.25% trypsin (4° C.) was added for digestion at 37° C. for 2 min. Then the supernate was added for neutralization and the cells were dispersed to form a suspension and the suspension was centrifuged at 1000 rpm for 3 min. The supernate was removed and 5 ml culture mediums were added for resuspension. Cells were inoculated in a 48-well plate by 500 ul/well at the concentration of 3×10^4/ml and then incubated under 5% CO2, 37° C. for 24 hours. The supernate was removed and a culture medium containing polypeptide (Zn^2+ in the culture medium was present at the concentration of 17.39 μmol/L) was added for further incubation for 48 hours. Supernate in each well was carefully removed. The well was gently washed by PBS once in an amount of 450 μl/well. 450 μl MTT culture mediums were added into each well for further cultivation for 4 hours. The supernate was carefully discarded. DMSO was added in an amount of 450 μl/well and then the plate was placed in a shaking bed for oscillation for 10 min in dark. 150 μl supernates were transferred to a 96-well ELISA plate and absorbance value of each well was detected at 490 nm and 570 nm by the microplate reader.

tumor cell HepG2 = type: cell-based
Protocol: as §1

Molecule	Cell Survival (%), 1 mg/ml of polypeptide, HUVEC [1]	biological activity compared with P2 [1]	Cell Survival (%), 1 mg/ml of polypeptide, HepG2 (tumor cell HepG2)	Cell Survival (%) at a polypeptide concentration of 120 μM [1]	also measured
CC[C@H](C)[C@H](NC(=O)CNC(=O)[C@H](CCCNC(=N)N)NC(=O)[C@H](CCSC)NC(=O)CNC(=O)CNC(=O)[C@H](CO)NC(=O)[C@H](CC(C)C)NC(=O)[C@H](CC(N)=O)NC(=O)[C@H](CO)NC(=O)[C@H](CC(N)=O)NC(=O)[C@H](CC(C)C)NC(=O)[C@H](C)NC(=O)[C@@H](NC(=O)[C@H](CC(C)C)NC(=O)[C@H](Cc1c[nH]cn1)NC(=O)[C@H](CC(C)C)NC(=O)[C@@H](NC(=O)[C@@H]1CCCN1C(=O)[C@H](CCC(N)=O)NC(=O)[C@H](Cc1ccccc1)NC(=O)[C@H](CC(=O)O)NC(=O)[C@H](CCCNC(=N)N)NC(=O)[C@H](Cc1c[nH]cn1)NC(=O)[C@H](CO)NC(=O)[C@H](Cc1c[nH]cn1)NC(C)=O)C(C)C)C(C)C)C(=O)N[C@@H](CCCNC(=N)N)C(=O)NCC(=O)N[C@@H](C)C(=O)N[C@@H](CC(=O)O)C(N)=O [Polypeptide P2N18] (Ac-HSHRDFQPVLHLVALNSNLSGGMRGIRGAD-NH2)	91%	lower biological activity than P2	85%		IC50 (ug/ml) HUVEC [1]: 1080.8 µg/mL (≈ 328 µM); IC50 (ug/ml) HepG2 (tumor cell HepG2): 1387.0 µg/mL (≈ 421 µM)
CC[C@H](C)[C@H](NC(=O)CNC(=O)[C@H](CCCNC(=N)N)NC(=O)[C@H](CCSC)NC(=O)CNC(=O)CNC(=O)[C@H](CO)NC(=O)[C@H](CC(C)C)NC(=O)[C@H](CO)NC(=O)[C@H](CO)NC(=O)[C@H](CC(N)=O)NC(=O)[C@H](CC(C)C)NC(=O)[C@H](C)NC(=O)[C@@H](NC(=O)[C@H](CC(C)C)NC(=O)[C@H](Cc1c[nH]cn1)NC(=O)[C@H](CC(C)C)NC(=O)[C@@H](NC(=O)[C@@H]1CCCN1C(=O)[C@H](CCC(N)=O)NC(=O)[C@H](Cc1ccccc1)NC(=O)[C@H](CC(=O)O)NC(=O)[C@H](CCCNC(=N)N)NC(=O)[C@H](Cc1c[nH]cn1)NC(=O)[C@H](CO)NC(=O)[C@H](Cc1c[nH]cn1)NC(C)=O)C(C)C)C(C)C)C(=O)N[C@@H](CCCNC(=N)N)C(=O)NCC(=O)N[C@@H](C)C(=O)N[C@@H](CC(=O)O)C(N)=O [Polypeptide P2S18] (Ac-HSHRDFQPVLHLVALNSSLSGGMRGIRGAD-NH2)	73%	lower biological activity than P2	70%		
CC(=O)N[C@@H](Cc1c[nH]cn1)C(=O)N[C@H](C(=O)N[C@@H](Cc1c[nH]cn1)C(=O)N[C@@H](CCCNC(=N)N)C(=O)N[C@@H](CC(=O)O)C(=O)N[C@@H](Cc1ccccc1)C(=O)N[C@@H](CCC(N)=O)C(=O)N1CCC[C@H]1C(=O)N[C@H](C(=O)N[C@@H](CC(C)C)C(=O)N[C@@H](Cc1c[nH]cn1)C(=O)N[C@@H](CC(C)C)C(=O)N[C@H](C(=O)N[C@@H](C)C(=O)N[C@@H](CC(C)C)C(N)=O)C(C)C)C(C)C)[C@@H](C)O [Polypeptide P2T2-15, Ac-HTHRDFQPVLHLVAL-NH2] (Ac-HTHRDFQPVLHLVAL-NH2)				95%	
CC[C@H](C)[C@H](NC(=O)CNC(=O)[C@H](CCCNC(=N)N)NC(=O)[C@H](CCSC)NC(=O)CNC(=O)CNC(=O)[C@H](CO)NC(=O)[C@H](CC(C)C)NC(=O)[C@H](CC(N)=O)NC(=O)[C@H](CO)NC(=O)[C@H](CC(N)=O)NC(=O)[C@H](CC(C)C)NC(=O)[C@H](C)NC(=O)[C@@H](NC(=O)[C@H](CC(C)C)NC(=O)[C@H](Cc1c[nH]cn1)NC(=O)[C@H](CC(C)C)NC(=O)[C@@H](NC(=O)[C@@H]1CCCN1C(=O)[C@H](CCC(N)=O)NC(=O)[C@H](Cc1ccccc1)NC(=O)[C@H](CC(=O)O)NC(=O)[C@H](CCCNC(=N)N)NC(=O)[C@H](Cc1c[nH]cn1)NC(=O)[C@@H](NC(=O)[C@H](Cc1c[nH]cn1)NC(C)=O)[C@@H](C)O)C(C)C)C(C)C)C(=O)N[C@@H](CCCNC(=N)N)C(=O)NCC(=O)N[C@@H](C)C(=O)N[C@@H](CC(=O)O)C(N)=O [Polypeptide P2T2N18] (Ac-HTHRDFQPVLHLVALNSNLSGGMRGIRGAD-NH2)	3%	obviously higher than that of P2	7%		IC50 (ug/ml) HUVEC [1]: 71.4 µg/mL (≈ 21.6 µM); reduction of IC50 concentration as compared to that of P2 ([1]; HUVEC and HepG2): about 10 folds; IC50 (ug/ml) HepG2 (tumor cell HepG2): 187.9 µg/mL (≈ 56.8 µM)
CC(=O)N[C@@H](Cc1c[nH]cn1)C(=O)N[C@H](C(=O)N[C@@H](Cc1c[nH]cn1)C(=O)N[C@@H](CCCNC(=N)N)C(=O)N[C@@H](CC(=O)O)C(=O)N[C@@H](Cc1ccccc1)C(=O)N[C@@H](CCC(N)=O)C(=O)N1CCC[C@H]1C(=O)N[C@H](C(=O)N[C@@H](CC(C)C)C(=O)N[C@@H](Cc1c[nH]cn1)C(=O)N[C@@H](CC(C)C)C(=O)N[C@H](C(=O)N[C@@H](C)C(=O)N[C@@H](CC(C)C)C(=O)N[C@@H](CC(N)=O)C(=O)N[C@@H](CO)C(=O)N[C@@H](CO)C(=O)N[C@@H](CC(C)C)C(=O)N[C@@H](CO)C(N)=O)C(C)C)C(C)C)[C@@H](C)O [Polypeptide P2T2S18-20] (Ac-HTHRDFQPVLHLVALNSSLS-NH2)				52%	
CSCC[C@H](NC(=O)CNC(=O)CNC(=O)[C@H](CO)NC(=O)[C@H](CC(C)C)NC(=O)[C@H](CO)NC(=O)[C@H](CO)NC(=O)[C@H](CC(N)=O)NC(=O)[C@H](CC(C)C)NC(=O)[C@H](C)NC(=O)[C@@H](NC(=O)[C@H](CC(C)C)NC(=O)[C@H](Cc1c[nH]cn1)NC(=O)[C@H](CC(C)C)NC(=O)[C@@H](NC(=O)[C@@H]1CCCN1C(=O)[C@H](CCC(N)=O)NC(=O)[C@H](Cc1ccccc1)NC(=O)[C@H](CC(=O)O)NC(=O)[C@H](CCCNC(=N)N)NC(=O)[C@H](Cc1c[nH]cn1)NC(=O)[C@@H](NC(=O)[C@H](Cc1c[nH]cn1)NC(C)=O)[C@@H](C)O)C(C)C)C(C)C)C(=O)N[C@@H](CCCNC(=N)N)C(=O)NCC(N)=O [Polypeptide P2T2S18-25] (Ac-HTHRDFQPVLHLVALNSSLSGGMRG-NH2)				31%	
CC[C@H](C)[C@H](NC(=O)CNC(=O)[C@H](CCCNC(=N)N)NC(=O)[C@H](CCSC)NC(=O)CNC(=O)CNC(=O)[C@H](CO)NC(=O)[C@H](CC(C)C)NC(=O)[C@H](CO)NC(=O)[C@H](CO)NC(=O)[C@H](CC(N)=O)NC(=O)[C@H](CC(C)C)NC(=O)[C@H](C)NC(=O)[C@@H](NC(=O)[C@H](CC(C)C)NC(=O)[C@H](Cc1c[nH]cn1)NC(=O)[C@H](CC(C)C)NC(=O)[C@@H](NC(=O)[C@@H]1CCCN1C(=O)[C@H](CCC(N)=O)NC(=O)[C@H](Cc1ccccc1)NC(=O)[C@H](CC(=O)O)NC(=O)[C@H](CCCNC(=N)N)NC(=O)[C@H](Cc1c[nH]cn1)NC(=O)[C@@H](NC(=O)[C@H](Cc1c[nH]cn1)NC(C)=O)[C@@H](C)O)C(C)C)C(C)C)C(=O)N[C@@H](CCCNC(=N)N)C(=O)NCC(=O)N[C@@H](C)C(=O)N[C@@H](CC(=O)O)C(=O)N[C@@H](Cc1ccccc1)C(=O)N[C@@H](CCC(N)=O)C(=O)N[C@@H](CS)C(=O)N[C@@H](Cc1ccccc1)C(=O)N[C@@H](CCC(N)=O)C(N)=O [Polypeptide P2T2S18-35] (Ac-HTHRDFQPVLHLVALNSSLSGGMRGIRGADFQCFQ-NH2)				15%	
CC[C@H](C)[C@H](NC(=O)CNC(=O)[C@H](CCCNC(=N)N)NC(=O)[C@H](CCSC)NC(=O)CNC(=O)CNC(=O)[C@H](CO)NC(=O)[C@H](CC(C)C)NC(=O)[C@H](CO)NC(=O)[C@H](CO)NC(=O)[C@H](CC(N)=O)NC(=O)[C@H](CC(C)C)NC(=O)[C@H](C)NC(=O)[C@@H](NC(=O)[C@H](CC(C)C)NC(=O)[C@H](Cc1c[nH]cn1)NC(=O)[C@H](CC(C)C)NC(=O)[C@@H](NC(=O)[C@@H]1CCCN1C(=O)[C@H](CCC(N)=O)NC(=O)[C@H](Cc1ccccc1)NC(=O)[C@H](CC(=O)O)NC(=O)[C@H](CCCNC(=N)N)NC(=O)[C@H](Cc1c[nH]cn1)NC(=O)[C@@H](NC(=O)[C@H](Cc1c[nH]cn1)NC(C)=O)[C@@H](C)O)C(C)C)C(C)C)C(=O)N[C@@H](CCCNC(=N)N)C(=O)NCC(=O)N[C@@H](C)C(=O)N[C@@H](CC(=O)O)C(=O)N[C@@H](Cc1ccccc1)C(=O)N[C@@H](CCC(N)=O)C(=O)N[C@@H](CS)C(=O)N[C@@H](Cc1ccccc1)C(=O)N[C@@H](CCC(N)=O)C(=O)N[C@@H](CCC(N)=O)C(=O)N[C@@H](C)C(=O)N[C@@H](CCCNC(=N)N)C(=O)N[C@@H](C)C(=O)N[C@H](C(N)=O)C(C)C [Polypeptide P2T2S18-40] (Ac-HTHRDFQPVLHLVALNSSLSGGMRGIRGADFQCFQQARAV-NH2)				49%	
Ac-HTHRDFQPVLHLVALNSSLSGGMRGIRGA-NH2 [Polypeptide P2T2S18-29]		siginficalty higher than P2			
Ac-HTHRDFQPVLHLVALNSSLSGGMRGIRGADFQCFQQARAVGLAGT-NH2 [Polypeptide P2T2S18-45]				80%	

Source: patent US10351613B2, “Polypeptide for inhibition of tumor” (G-Bio Pharma Tech Co., Ltd., priority 2015, dated 2019)
